Patent US10590086B2, “Pharmaceutical compound” (IOmet Pharma Ltd., priority 2014, dated 2020)

Columns and labels:
TDO [1] = target: T1, TDO (Homo sapiens, UniProt P48775); test: A172 kynurenine cell-based assay; set-up: This assay utilised cancer cells which expressed either TDO or IDO; endogenous in cells; host or cells: A172 (human glioblastoma); details: A172 human glioblastoma cells, 48 hours, read-out: A172 Kynurenine cell based assay pIC50 (converted)
In short: (§1)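 Readout: […] of cell supernatant 5 min after Erhlich's reagent, reporting kynurenine. Cells: A172 (TDO) or SKOV3 + 500 ng/ml IFN-γ (IDO), 48 h, 37° C, ± compound. Medium: phenol red-free RPMI, 10% FCS, 2 mM L-glutamine, 500 μM L-tryptophan.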

IDO [2] = target: T2, IDO (Homo sapiens, UniProt P14902); test: hIDO biochemical coupled assay; details: 45 μM L-tryptophan, read-out: hIDO biochemical assay pIC50 (converted)
T2 sequence (P14902 whole entry): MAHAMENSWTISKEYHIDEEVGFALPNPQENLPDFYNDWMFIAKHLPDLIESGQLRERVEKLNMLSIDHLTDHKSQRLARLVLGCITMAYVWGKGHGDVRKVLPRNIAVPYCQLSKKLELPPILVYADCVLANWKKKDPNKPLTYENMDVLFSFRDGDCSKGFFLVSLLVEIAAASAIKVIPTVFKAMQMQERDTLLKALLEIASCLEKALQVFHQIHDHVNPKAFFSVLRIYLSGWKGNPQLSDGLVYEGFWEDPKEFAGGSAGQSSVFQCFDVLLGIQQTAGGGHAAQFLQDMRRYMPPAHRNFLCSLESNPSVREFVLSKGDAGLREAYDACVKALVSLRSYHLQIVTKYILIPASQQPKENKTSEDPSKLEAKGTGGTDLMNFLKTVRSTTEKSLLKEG

TDO [3] = target: T1, TDO; test: hTDO biochemical coupled assay; details: 330 μM L-tryptophan, read-out: hTDO biochemical assay pIC50 (converted)
IDO [4] = target: T2, IDO; test: SKOV3 kynurenine cell-based assay (IDO induced by IFN-γ); set-up: IDO expression was induced in the SKOV3 cells by the addition of 500 ng/ml IFN-γ; endogenous in cells; host or cells: SKOV3 (human ovarian adenocarcinoma), induced with IFN-γ; details: 48 hours, read-out: SKOV3 Kynurenine cell based assay pIC50 (converted)
In short: as §1

[5] = SKOV3 human ovarian adenocarcinoma cells, 500 ng/ml IFN-γ, 500 μM L-tryptophan
[6] = SKOV3 cells, IDO induced by 500 ng/ml IFN-γ

T1 sequence (P48775 whole entry): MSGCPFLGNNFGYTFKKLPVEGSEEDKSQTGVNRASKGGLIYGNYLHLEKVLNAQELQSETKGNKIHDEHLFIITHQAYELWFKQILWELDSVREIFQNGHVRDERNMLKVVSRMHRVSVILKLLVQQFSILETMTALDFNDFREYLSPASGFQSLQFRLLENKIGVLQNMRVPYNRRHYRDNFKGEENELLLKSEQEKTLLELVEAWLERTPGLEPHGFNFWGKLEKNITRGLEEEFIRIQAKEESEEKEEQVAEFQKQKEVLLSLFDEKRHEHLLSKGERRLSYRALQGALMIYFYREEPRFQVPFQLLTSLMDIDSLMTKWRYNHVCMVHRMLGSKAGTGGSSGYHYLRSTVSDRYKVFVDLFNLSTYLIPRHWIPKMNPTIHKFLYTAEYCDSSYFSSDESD

Row | IC50 (TDO [1]; 500 μM L-tryptophan) | IC50 (IDO [2]; 17 minutes, room temperature) | IC50 (TDO [3]; 17 minutes, room temperature) | IC50 (IDO [4]; [5]) | IC50 (TDO [1]) | IC50 (IDO [2]) | IC50 (TDO [3]) | IC50 (IDO [4]; [6]) | SMILES
1 | < 3.16 µM | 3.24 to 31.6 µM | < 3.16 µM | < 3.16 µM |  |  |  |  | O=C1CCC2(CCN1)CCN(c1cc(Cl)cc3[nH]ncc13)CC2 [Compound 394]
2 | < 3.16 µM | > 100 µM | < 3.16 µM | < 3.16 µM |  |  |  |  | CS(=O)(=O)N1CC2(CN(c3cc(Cl)cc4[nH]ncc34)C2)C1 [Compound 395]
3 | < 3.16 µM | > 100 µM | 3.24 to 31.6 µM | > 100 µM | 0.832 µM | > 257 µM | 3.63 µM | > 10 µM | CC(C)Cn1cc(-c2cc(Cl)cc3[nH]ncc23)cn1 [Compound 396, 6-chloro-4-(1-isobutyl-1H-pyrazol-4-yl)-1H-indazole]
4 | < 3.16 µM | > 100 µM | < 3.16 µM | > 100 µM |  |  |  |  | O=C1NCNC12CCN(c1cc(Cl)cc3[nH]ncc13)CC2 [Compound 397]
5 | < 3.16 µM | > 100 µM | < 3.16 µM | > 100 µM |  |  |  |  | CS(=O)(=O)N1CCOC2(CCN(c3cc(Cl)cc4[nH]ncc34)CC2)C1 [Compound 398]
6 | < 3.16 µM | > 100 µM | > 100 µM | > 100 µM |  |  |  |  | Clc1cc(-c2cnn(-c3ccccc3)c2)c2cn[nH]c2c1 [Compound 399]
7 | < 3.16 µM | < 3.16 µM | < 3.16 µM | < 3.16 µM |  |  |  |  | CC(=O)N1CCC(c2cc(Cl)cc3[nH]ncc23)CC1(C)C (stereo not shown) [Compound 400]
8 | < 3.16 µM | > 100 µM | < 3.16 µM | > 100 µM |  |  |  |  | CNC(=O)CN1CCC(c2cc(Cl)cc3[nH]ncc23)CC1 [Compound 401]
9 | < 3.16 µM | 32.4 to 100 µM | < 3.16 µM | < 3.16 µM |  |  |  |  | CC(=O)N1CC2(C1)CN(c1cc(Cl)cc3[nH]ncc13)C2 [Compound 402]
10 | < 3.16 µM | > 100 µM | < 3.16 µM | > 100 µM |  |  |  |  | CS(=O)(=O)NCCN1CCN(c2cc(Cl)cc3[nH]ncc23)CC1 [Compound 403]
11 | 3.24 to 31.6 µM | 32.4 to 100 µM | < 3.16 µM | < 3.16 µM |  |  |  |  | O=C1Nc2ccccc2NC12CCN(c1cc(Cl)cc3[nH]ncc13)CC2 [Compound 404]
12 | < 3.16 µM | < 3.16 µM | < 3.16 µM | < 3.16 µM |  |  |  |  | O=C1NC2(CCN(c3cc(Cl)cc4[nH]ncc34)CC2)C(=O)N1CC(F)(F)F [Compound 405]
13 | < 3.16 µM | < 3.16 µM | < 3.16 µM | < 3.16 µM |  |  |  |  | O=C1NC2(CCN(c3cc(Br)cc4[nH]ncc34)CC2)C(=O)N1Cc1ccccc1 [Compound 406]
14 | < 3.16 µM | < 3.16 µM | < 3.16 µM | < 3.16 µM |  |  |  |  | O=C1NC2(CCN(c3cc(Cl)cc4[nH]ncc34)CC2)C(=O)N1Cc1ncco1 [Compound 407]
15 | < 3.16 µM | < 3.16 µM | < 3.16 µM | < 3.16 µM |  |  |  |  | Cn1ccnc1CN1C(=O)NC2(CCN(c3cc(Cl)cc4[nH]ncc34)CC2)C1=O [Compound 408]
16 | 3.24 to 31.6 µM | 32.4 to 100 µM | < 3.16 µM | > 100 µM |  |  |  |  | CC(=O)N1CCOC2(CCN(c3cc(Cl)cc4[nH]ncc34)CC2)C1 [Compound 409]
17 | < 3.16 µM | > 100 µM | < 3.16 µM | 3.24 to 31.6 µM |  |  |  |  | O=C1NCCN1C1CCN(c2cc(Cl)cc3[nH]ncc23)CC1 [Compound 410]
18 | < 3.16 µM | > 100 µM | < 3.16 µM | < 3.16 µM |  |  |  |  | CN1CCN(C2CCN(c3cc(Cl)cc4[nH]ncc34)CC2)C1=O [Compound 411]
19 | < 3.16 µM | < 3.16 µM | < 3.16 µM | > 100 µM |  |  |  |  | CC(=O)NCCN1C(=O)NC2(CCN(c3cc(Cl)cc4[nH]ncc34)CC2)C1=O [Compound 412]
20 | < 3.16 µM | < 3.16 µM | < 3.16 µM | 3.24 to 31.6 µM |  |  |  |  | CNC(=O)CN1CCN(c2cc(Cl)cc3[nH]ncc23)CC1(C)C [Compound 413]
21 | < 3.16 µM | 32.4 to 100 µM | < 3.16 µM | > 100 µM |  |  |  |  | COC(=O)CN1CCN(c2cc(Cl)cc3[nH]ncc23)CC1(C)C [Compound 414]

Row | IC50 (TDO [1]; 500 μM L-tryptophan) | IC50 (IDO [2]; 17 minutes, room temperature) | IC50 (TDO [3]; 17 minutes, room temperature) | IC50 (IDO [4]; [5]) | IC50 (TDO [1]) | IC50 (IDO [2]) | IC50 (TDO [3]) | IC50 (IDO [4]; [6]) | SMILES
22 | < 3.16 µM | < 3.16 µM | < 3.16 µM | 3.24 to 31.6 µM |  |  |  |  | CS(=O)(=O)NCCN1C(=O)NC2(CCN(c3cc(Cl)cc4[nH]ncc34)CC2)C1=O [Compound 416]
23 | < 3.16 µM | > 100 µM | < 3.16 µM | > 100 µM |  |  |  |  | Clc1cc(N2CCc3cn[nH]c3C2)c2cn[nH]c2c1 [Compound 417]
24 | < 3.16 µM | > 100 µM | < 3.16 µM | > 100 µM |  |  |  |  | O[C@H]1CCCC[C@@H]1c1cc(Cl)cc2[nH]ncc12 [Compound 418]
25 | < 3.16 µM | > 100 µM | < 3.16 µM | > 100 µM |  |  |  |  | O[C@@H]1CCCC[C@@H]1c1cc(Cl)cc2[nH]ncc12 [Compound 419]
26 | < 3.16 µM | 3.24 to 31.6 µM | < 3.16 µM | > 100 µM |  |  |  |  | CC1(C)CN(c2cc(Cl)cc3[nH]ncc23)CCN1CCNS(C)(=O)=O [Compound 420]
27 | < 3.16 µM | 3.24 to 31.6 µM | < 3.16 µM | > 100 µM |  |  |  |  | CC(=O)NCCN1CCN(c2cc(Cl)cc3[nH]ncc23)CC1(C)C [Compound 421]
28 | < 3.16 µM | 3.24 to 31.6 µM | < 3.16 µM | < 3.16 µM |  |  |  |  | O=C1N(c2ccccc2)CNC12CCN(c1cc(Cl)cc3[nH]ncc13)CC2 [Compound 422]
29 | < 3.16 µM | < 3.16 µM | < 3.16 µM | 3.24 to 31.6 µM |  |  |  |  | CCS(=O)(=O)N1CCC(c2cc(Cl)cc3[nH]ncc23)CC1 [Compound 423]
30 | < 3.16 µM | < 3.16 µM | < 3.16 µM | < 3.16 µM | 0.0759 µM | 0.347 µM | 0.24 µM | 0.145 µM | CC1(C)CN(c2cc(Cl)cc3[nH]ncc23)CCC12NC(=O)NC2=O (stereo not shown) [Compound 424, 8-(6-chloro-1H-indazol-4-yl)-6,6-dimethyl-1,3,8-triazaspiro[4.5]decane-2,4-dione]
31 | < 3.16 µM | > 100 µM | < 3.16 µM | > 100 µM |  |  |  |  | Cc1nc2c(o1)CN(c1cc(Cl)cc3[nH]ncc13)CC2(C)C [Compound 425]
32 | < 3.16 µM | 3.24 to 31.6 µM | < 3.16 µM | > 100 µM |  |  |  |  | Clc1cc(C2CCOCC2)c2cn[nH]c2c1 [Compound 426]
33 | < 3.16 µM | > 100 µM | 3.24 to 31.6 µM | > 100 µM |  |  |  |  | CC1(C)CCC(O)(c2cc(Cl)cc3[nH]ncc23)CC1 [Compound 427]
34 | < 3.16 µM | 3.24 to 31.6 µM | < 3.16 µM | 3.24 to 31.6 µM |  |  |  |  | OC1(c2cc(Cl)cc3[nH]ncc23)CCC(F)(F)CC1 [Compound 428]
35 | < 3.16 µM | 3.24 to 31.6 µM | < 3.16 µM | 3.24 to 31.6 µM |  |  |  |  | Clc1cc(N2CCC(c3ncco3)CC2)c2cn[nH]c2c1 [Compound 429]
36 | 3.24 to 31.6 µM | < 3.16 µM | < 3.16 µM | > 100 µM |  |  |  |  | Nc1ccnn1C1CCN(c2cc(Cl)cc3[nH]ncc23)CC1 [Compound 430]
37 | < 3.16 µM | < 3.16 µM | < 3.16 µM | > 100 µM |  |  |  |  | CS(=O)(=O)NC1CN(c2cc(Cl)cc3[nH]ncc23)C1 [Compound 431]
38 | < 3.16 µM | 3.24 to 31.6 µM | < 3.16 µM | > 100 µM |  |  |  |  | Cn1ncc2c1CN(c1cc(Cl)cc3[nH]ncc13)CC2 [Compound 432]
39 | 3.24 to 31.6 µM | > 100 µM | < 3.16 µM | > 100 µM |  |  |  |  | Cn1cc2c(n1)CN(c1cc(Cl)cc3[nH]ncc13)CC2 [Compound 433]
40 | < 3.16 µM | > 100 µM | < 3.16 µM | > 100 µM |  |  |  |  | Cc1nc2c(o1)CN(c1cc(C(F)(F)F)cc3[nH]ncc13)CC2(C)C [Compound 434]
41 | < 3.16 µM | > 100 µM | < 3.16 µM | > 100 µM |  |  |  |  | Cn1ccnc1N1CCN(c2cc(Cl)cc3[nH]ncc23)CC1 [Compound 436]
42 | < 3.16 µM | 3.24 to 31.6 µM | < 3.16 µM | < 3.16 µM |  |  |  |  | CS(=O)(=O)Nc1ccc(C2CCN(c3cc(Cl)cc4[nH]ncc34)CC2)cc1 [Compound 437]

Row | SMILES | IC50 (TDO [1]; 500 μM L-tryptophan) | IC50 (IDO [2]; 17 minutes, room temperature) | IC50 (TDO [3]; 17 minutes, room temperature) | IC50 (IDO [4]; [5]) | IC50 (TDO [1]) | IC50 (IDO [2]) | IC50 (TDO [3]) | IC50 (IDO [4]; [6])
43 | CN1C(=O)[C@@H]2CC[C@H]1CN(c1cc(Cl)cc3[nH]ncc13)C2 [Compound 435] | < 3.16 µM | 3.24 to 31.6 µM | < 3.16 µM | > 100 µM |  |  |  | 
44 | O=C1N[C@H]2CC[C@@H]1CN(c1cc(Br)cc3[nH]ncc13)C2 [Compound 438] | < 3.16 µM | 3.24 to 31.6 µM | < 3.16 µM | > 100 µM |  |  |  | 
